Data set [1] concerns CUL4A^low T47D breast cancer cells. Description: Cell killing in CUL4-low T47D cells (CellTiter Glo). The format is cell-based. The conditions noted are these: Homo sapiens, 192 h; T47D cells, 8 days treatment; read-out: EC50 CUL4-Low Cells (cell killing). On the procedure:
EC50 indicates compound concentration can cause 50% cell killing in CUL4° ^w T47D cells (see Table 1, column 7). CUL4A^low T47D breast cancer cells were seeded in 96 well plate. […] Change fresh medium and compounds every 48 hours. After 8 days treatment, cell viability was examined by using CellTiter Glo kit (Promega #7570) following the manufacturer's guidelines (https://www.promega.com/-/media/files/resources/protocols/technical-bulletins/0/celltiter-glo-luminescent-cell-viability-assay-protocol.pdf?rev=0d95c232094b41daa06d0c110d1d916f&sc_lang=en, hereby incorporated by reference in its entirety for all purposes). EC50 concentration was calculated by Prism 8 XY analysis nonlinear regression (curve fit-Log(inhibitor) vs response). EC50 indicates cell killing potential in CUL4 low T47D cell line and the EC50 difference between CUL4^high and CUL4^low cells indicates the small molecule cause specific cell killing.
CUL4A^high MDA-MB-468, CUL4^low (T47D), and MCF7 breast cancer cells were seeded in 96 well plates separately. […] Replace with fresh medium and compounds every 48 hours. After 8 days treatment, cell viability was examined by CellTiter Glo kit (Promega #7570). First, transfer the appropriate volume (10 ml for Cat. #G7570) of CellTiter-Glo® Buffer into the amber bottle containing CellTiter-Glo® Substrate to reconstitute the lyophilized enzyme/substrate mixture. This forms the CellTiter-Glo® Reagent. Second, add CellTiter-Glo® Reagent in an equal volume (100 μl per well for 96-well plates) to all wells. Mix contents for 2 minutes on an orbital shaker to induce cell lysis. Incubate at room temperature for 15 minutes to stabilize luminescent signal. Then record luminescence. EC50 concentration was calculated by Prism 8 XY analysis nonlinear regression (curve fit-Log(inhibitor) vs response).

Data set [2] concerns CUL4A^high MDA-MB-468 breast cancer cells. Kind of data set: Cell killing in CUL4-high MDA-MB-468 cells (CellTiter Glo). The conditions noted are these: Homo sapiens, 192 h; MDA-MB-468 cells, 8 days treatment; read-out: EC50 CUL4-High Cells (cell killing). The format is cell-based. In outline: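 Cells seeded, treated after 24 h with DMSO or compound (0 to 20 μM). Medium and compound replaced every 48 h over 8 days. Viability measured by CellTiter-Glo luminescence; EC50 (50% killing) from log(inhibitor) vs response nonlinear fit.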
For orientation: ATP-based viability assays read luminescence as a measure of living cells.

Another data set concerns the target DDB1-BPB (Homo sapiens (Human), UniProt Q16531). Description: Microscale Thermophoresis (MST) binding to DDB1-BPB. The conditions noted are these: labeled DDB1-BPB, 25° C. On the procedure:
Kd represents dissociation constant, which measures the affinity of small molecule binding to the scaffold DDB1-BPB by Microscale Thermophoresis (MST) (see Table 1, column 9). MST experiments were performed on a Monolith NT 115 system (Nano Temper Technologies, Munich, Germany) using 100% LED and 60% IR-laser power (https://physiology.case.edu/media/eq manuals/eq_manual_nano-temper_mst_starting_guide.pdf, hereby incorporated by reference in its entirety for all purposes). The labeling of DDB1-BPB ([…]) was performed in labeling buffer with NHS-Red reactive dye (30 μM) (Nanotemper), which reacts efficiently with the primary amines of the proteins to form a stable dye protein conjugates. The labeling reaction was carried out at RT. A 16-point serial dilution (1:1) was prepared for compound at the final concentration ranged from 200 µM to 3 nM in PBS containing 0.05% tween. The samples were filled into Premium capillaries and measurements were conducted at 25° C. An equation implemented by the software MO-S002 MO Affinity Analysis, provided by the manufacturer, was used for fitting normalized fluorescence values at different concentrations of ligands.
On the technique in general: MST reads how a fluorescent partner responds to local heating, with and without ligand.

The nature of data set [3]: Dynamic light scattering (DLS) solubility assay. The format is physicochemical. The conditions noted are these: normalized intensity ratio of 25 μM compound vs DMSO, in PBS. On the procedure: Dynamic light scattering (DLS) (see Table 1, column 3) is a tool for studying the diffusion behavior of macromolecules in solution. To profile compound solubility, DLS assay was developed for measuring aggregation of small molecule compounds. Compound stock solution was prepared in DMSO. Dilution series were made for each compound in DMSO to ensure a final 1× assay concentration range of 200 μM to 0.78 μM. For example, if the final DMSO concentration was 1%, compounds were prepared at 100× concentrations ranging from […] to 78 μM. Dilute compounds in PBS solution to final concentration. Place 60 μl/well in 96 well plates and 3 replicates for each sample. Data were collected using a DynaPro Plate Reader III (WYATT Technologies, Inc., USA). The instrument was adjusted to measure the optimal light scattering intensity according to the manufacturer's instructions. […] The ratio over 2 means (−) insoluble. The ratio below 2 means (+) soluble and around 2 means (+/−).

Data set [4] addresses CUL4A-DDB1-BPB interaction (Homo sapiens (Human), UniProt Q16531). Description: AlphaLISA in vitro binding assay, CUL4A and DDB1-BPB binding. The settings on record: inhibition of CUL4A and DDB1-BPB binding. The method in brief:
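Compound disruption of CUL4A binding to DDB1-BPB measured by AlphaLISA/AlphaScreen bead proximity in 384-well format. IC50 from nonlinear log(inhibitor)-vs-response curve fit.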

Data set [5] relates to UV-induced CUL4-dependent DDB2 degradation in MEF-F-DDB2 cells. Kind of data set: Cell-based assay for inhibition of UV-induced CUL4-dependent DDB2 degradation. The conditions noted are these: DDB2/α-tubulin by Western blot. On the set-up: key: (+) means that the normalized DDB2/α-tubulin ratio is higher in the compound treated sample than DMSO treated sample; (−) means that no change happens between compound treated sample with control sample. In outline: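 MEF cells expressing Flag-DDB2, in serum-free medium, treated with DMSO or compound, UV-irradiated (254 nm, 0.2 W/m^2), then harvested. Flag-DDB2 measured by western blot against α-tubulin; (+) denotes normalized DDB2/α-tubulin above DMSO, (−) no change.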

The structures appear in SMILES notation.

The text below walks through data of US20250188078A1, “SMALL MOLECULE INHIBITORS OF THE CRL4 UBIQUITIN LIGASE” (Cornell University, priority 2022, published 2025).

Chain of DDB1-BPB (Q16531 403-706): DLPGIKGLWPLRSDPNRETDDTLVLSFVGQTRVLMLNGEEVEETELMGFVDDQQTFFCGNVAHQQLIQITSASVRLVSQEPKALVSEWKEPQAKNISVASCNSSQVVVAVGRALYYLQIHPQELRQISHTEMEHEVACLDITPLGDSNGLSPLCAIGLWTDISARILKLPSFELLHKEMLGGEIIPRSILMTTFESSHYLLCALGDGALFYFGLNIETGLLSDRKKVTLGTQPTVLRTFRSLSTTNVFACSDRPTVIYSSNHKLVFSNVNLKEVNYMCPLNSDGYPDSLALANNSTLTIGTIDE
Chain of CUL4A-DDB1-BPB interaction (Q16531 403-706): as above

By EC50 is commonly meant the concentration giving half of the maximal effect. As for `COC(=O)c1cc2c([nH]c3ccccc32)c(-c2ccc(NCc3ccc(F)cc3)cc2)n1` [PA57, methyl 1-[4-[(4-fluorophenyl)methylamino]phenyl]-9H-pyrido[3,4-b]indole-3-carboxylate], the EC50 in data set [1] was 1.6 µM; in data set [2] it was 1.08 µM. Also, the “Kd (MST)” value at DDB1-BPB was “Insoluble”. Also, the “Solubility (DLS Assay)” value in data set [3] was “-(insoluble)”. Besides, the “AlphaLisa IC50” value in data set [4] is reported as “Neg”.

The IC50 is the concentration that inhibits the measured activity by half. `CN(c1ccc(-c2nc(C(=O)O)cc3c2[nH]c2ccc(F)cc23)cc1)S(=O)(=O)c1ccc(F)cc1` [PA2-3, 6-fluoro-1-[4-[(4-fluorophenyl)sulfonyl-methyl-amino]phenyl]-9H-pyrido[3,4-b]indole-3-carboxylic acid]: the results for the EC50 in data set [1] and in data set [2] were > 100 µM and 13.3 µM, respectively. The “Solubility (DLS Assay)” value in data set [3] is given as “-(insoluble)”. Further, the “Degradation Inhibition (inhibition of UV-induced DDB2 degradation)” value (from here on “Degradation Inhibition”) in data set [5] is on record as “−”. In data set [4], the IC50 amounted to 0.48 µM.

With `CN(c1ccc(-c2nc(C(=O)O)cc3c2[nH]c2ccc(F)c(F)c23)cc1)S(=O)(=O)c1ccccc1` [PA1-1, 1-[4-[benzenesulfonyl(methyl)amino]phenyl]-5,6-difluoro-9H-pyrido[3,4-b]indole-3-carboxylic acid], the EC50 in data set [1] was > 100 µM; in data set [2], 15.2 µM. Further, the “Solubility (DLS Assay)” value in data set [3] is “-(insoluble)”. The “Degradation Inhibition” value in data set [5] is recorded as “−”. Moreover, the IC50 in data set [4] amounted to 0.17 µM.

Take `O=[N+]([O-])c1ccc(-c2nc(-c3nn[nH]n3)cc3c2[nH]c2ccccc23)cc1` [PA40, 1-(4-nitrophenyl)-3-(1H-tetrazol-5-yl)-9H-pyrido[3,4-b]indole]: the EC50 turned out to be 54.7 µM in data set [1] and 23.5 µM in data set [2]. The “Solubility (DLS Assay)” value in data set [3] is reported as “-(insoluble)”. The half-maximal inhibitory concentration (IC50) in data set [4] worked out at 12.9 ± 7.44 µM.

For the compound `COc1ccc(S(=O)(=O)N(C)c2ccc(-c3nc(C(=O)O)cc4c3[nH]c3ccc(F)cc34)cc2)cc1` [PA2-2, 6-fluoro-1-[4-[(4-methoxyphenyl)-sulfonyl-methyl-amino]phenyl]-9H-pyrido[3,4-b]indole-3-carboxylic acid], the EC50 in data set [1] was > 100 µM; in data set [2], 8.45 µM. In data set [3], the “Solubility (DLS Assay)” value is “-(insoluble)”. Also, the “Degradation Inhibition” value in data set [5] is “−”. For the same compound, the IC50 in data set [4] turned out to be 0.89 µM.

As for `COC(=O)c1cc2c([nH]c3ccccc32)c(-c2ccc(S(C)(=O)=O)cc2)n1` [PA54], the EC50 in data set [1] and in data set [2] was > 100 µM each time. Moreover, the “Solubility (DLS Assay)” value in data set [3] was “-(insoluble)”. Also, in data set [5], the “Degradation Inhibition” value is “+”. Further, the “AlphaLisa IC50” value in data set [4] is reported as “Neg”.

As to `Cc1ccc(S(=O)(=O)N(C)c2ccc(-c3nc(C(=O)O)cc4c3[nH]c3ccc(F)cc34)cc2)cc1` [PA2-1, 6-fluoro-1-[4-[methyl-(p-tolylsulfonyl)amino]phenyl]-9H-pyrido[3,4-b]indole-3-carboxylic acid], the EC50 in data set [1] is > 100 µM; in data set [2] it was 9.32 µM. Moreover, in data set [3], the “Solubility (DLS Assay)” value is given as “-(insoluble)”. Also, the “Degradation Inhibition” value in data set [5] is reported as “−”. Besides, in data set [4], the IC50 is 0.3 µM.

Consider `CN(c1ccc(-c2nc(C(=O)O)cc3c2[nH]c2c(F)cccc23)cc1)S(=O)(=O)c1ccccc1` [PA1-4, 8-fluoro-1-(4-(N-methylphenylsulfonamido)phenyl)-9H-pyrido[3,4-b]indole-3-carboxylic acid], for which the EC50 came to 10.9 µM in data set [1] and 6.9 µM in data set [2]. The “Degradation Inhibition” value in data set [5] is on record as “−”. Further, the half-maximal inhibitory concentration (IC50) in data set [4] stood at 8.88 µM.

On to `COC(=O)c1ccc(-c2nc(C(=O)O)cc3c2[nH]c2ccccc23)cc1` [PA20, 1-(4-methoxycarbonylphenyl)-9H-pyrido[3,4-b]indole-3-carboxylic acid], for which the concentration giving a half-maximal response (EC50) in data set [1] is > 100 µM; in data set [2] it was 91.3 µM. Moreover, the “Degradation Inhibition” value in data set [5] is “+”. For the same compound, the IC50 in data set [4] came out at 2.09 ± 1.26 µM.

What is called Kd is the constant that tells how readily two partners part at equilibrium. For the compound `O=C(O)c1cc2c([nH]c3ccccc32)c(-c2ccc(SCc3ccccc3)cc2)n1` [PA66, 1-(4-benzylsulfanylphenyl)-9H-pyrido[3,4-b]indole-3-carboxylic acid], the EC50 was 4 µM in data set [1] and 4.41 µM in data set [2]. Binding on DDB1-BPB was put at a Kd of 59.6 µM. In addition, the half-inhibitory concentration (IC50) in data set [4] amounted to 5.99 ± 0.43 µM.

Regarding `CS(=O)(=O)Nc1ccc(-c2nc(C(=O)O)cc3c2[nH]c2ccccc23)cc1` [PA48, 1-[4-(methanesulfonamido)phenyl]-9H-pyrido[3,4-b]indole-3-carboxylic acid], the EC50 in data set [1] is > 100 µM; in data set [2] it was 84.1 µM. Also, the “Degradation Inhibition” value in data set [5] is listed as “+”. Moreover, the IC50 in data set [4] was 1.26 ± 0.45 µM.

As for `COC(=O)c1cc2c([nH]c3ccccc32)c(-c2ccc(SCc3ccccc3)cc2)n1` [PA64, methyl 1-(4-benzylsulfanylphenyl)-9H-pyrido[3,4-b]indole-3-carboxylate], the EC50 is > 20 µM in data set [1] and 22.8 µM in data set [2]. For the same compound, at DDB1-BPB, the “Kd (MST)” value is recorded as “Insoluble”. Moreover, in data set [4], the “AlphaLisa IC50” value is on record as “Neg”.

Consider `COC(=O)c1cc2c([nH]c3ccc(F)cc32)c(-c2ccc(N(C)S(=O)(=O)c3ccccc3)cc2)n1` [PA93-1], for which the EC50 was > 100 µM in data set [1] and 21.8 µM in data set [2]. Further, in data set [3], the “Solubility (DLS Assay)” value is given as “-(insoluble)”. In addition, the “Degradation Inhibition” value in data set [5] is listed as “−”. Besides, the “AlphaLisa IC50” value in data set [4] is recorded as “Neg”.

For the compound `COC(=O)c1cc2c([nH]c3ccccc32)c(-c2ccc(S(=O)(=O)Cc3ccccc3)cc2)n1` [PA65, methyl 1-(4-benzylsulfonylphenyl)-9H-pyrido[3,4-b]indole-3-carboxylate], the figures for the EC50 in data set [1] and in data set [2] were 44.3 µM and 18.1 µM, respectively. For the same compound, the “Solubility (DLS Assay)” value in data set [3] is on record as “-(insoluble)”. The “AlphaLisa IC50” value in data set [4] is on record as “Neg”.

Turning to `CN(c1ccc(-c2nc(C(=O)O)cc3c2[nH]c2cc(Br)ccc23)cc1)S(=O)(=O)c1ccccc1` [PA117, 1-[4-[benzenesulfonyl(methyl)amino]phenyl]-7-bromo-9H-pyrido[3,4-b]indole-3-carboxylic acid], the EC50 in data set [1] is 5.48 µM; in data set [2], 3.42 µM. The Kd at DDB1-BPB turned out to be 25.4 µM. The IC50 in data set [4] stood at 2.5 µM.
